Measurements as given in patent publication US20230210853A1 (Halia Therapeutics, Inc., priority 2020, published 2023).
Like-named read-outs stand apart in the source and are kept apart here. Values belong to the compound of their own block, whether it stands above or below them.

Tests used:
IL-1β release = IL-1β release assay (PMA-differentiated THP-1 cells, LPS + nigericin, cleaved IL-1β by JESS); type: cell-based; details: Homo sapiens
Description: (§1) Approximately 1.5 million THP-1 cells were plated in each well of a 6-well TC plate and incubated with 40 nM PMA in RPMI (10% FBS, 1% Penstrep) for 24 hours. The media was then removed and cells were rested in RPMI (10% FBS, 1% Penstrep) for 24 hours after which time the media was removed and cells were pre-treated for 2 hours with various concentrations of compounds of interest (typically serial 3-fold dilution in RPMI +5% FBS, concentrations ranging from 1 μM to 0.5 nM) in RPMI (5% FBS). The media was again removed and cells were incubated with 250 ng/mL LPS and compounds of interest (concentrations as above) in RMPI (5% FBS) for 2 hours. The media was removed for a last time and cells were incubated with 20 μM nigericin and compounds of interest (concentrations as above) in Opti-MEM for 30 minutes. Cell media was then collected and the amount of cleaved IL-1β was determined using a JESS instrument (Protein Simple) and standard protocols. Cleaved 1-PD antibody was obtained from Cell Signaling (catalogue #83186S) and was used at 1:20 dilution in antibody diluent 2. Protein Simple 1× anti-Rabbit HRP secondary antibody was used along with Protein Simple luminol and peroxide for chemiluminescent detection. Primary antibody incubation time was increased from 30 minutes to 60 minutes.
as §1, with “RPMI+5%” for “RPMI +5%”, “Il-1β” for “1-PD”

[1] = target: T1, full-length recombinant human NEK7 (Homo sapiens, UniProt Q8TDX7); test: NEK7 enzymatic assay ([33P]-ATP, casein substrate); type: biochemical
T1 construct: full-length recombinant human NEK7; GST (N); purchased SignalChem N09-10G; host or cells: Sf9 insect cells (baculovirus)
Summary of the method: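 Serially diluted compounds (10 μM down to 0.5 nM, 3-fold) were preincubated 20 min at room temperature with N-terminal GST-NEK7 from Sf9 cells and casein in pH 7.5 Hepes/MgCl2/EGTA/Brij35/DTT buffer containing 1% DMSO. [33P]-ATP then started a 2 h room-temperature reaction, stopped by spotting onto P81 paper. IC50 came from percent activity remaining versus vehicle.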

[2] = THP-1, comparative compounds of Structure (II), read-out: IL-1β release IC50
[3] = comparative compounds of Structure (II)
[4] = Table 2a, THP-1 cells, LPS + nigericin, read-out: II-1β release IC50
[5] = Table 2a, recombinant human NEK7, casein substrate
[6] = Table 2e, recombinant human NEK7, casein substrate

T1 sequence (Q8TDX7 whole entry): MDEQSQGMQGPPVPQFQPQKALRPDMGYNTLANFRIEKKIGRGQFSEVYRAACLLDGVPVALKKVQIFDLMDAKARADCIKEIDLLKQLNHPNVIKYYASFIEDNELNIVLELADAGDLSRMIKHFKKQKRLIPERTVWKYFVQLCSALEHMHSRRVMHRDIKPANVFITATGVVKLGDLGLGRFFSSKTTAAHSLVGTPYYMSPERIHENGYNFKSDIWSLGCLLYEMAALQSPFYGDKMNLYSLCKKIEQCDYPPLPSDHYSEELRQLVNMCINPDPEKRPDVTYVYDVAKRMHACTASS

Compound: CC(C)(C)c1cc(NC(=O)Nc2ccc(-c3nn(C4COC4)c4ncnc(N)c34)cc2F)on1 [Ia-12, 1-(4-(4-amino-1-(oxetan-3-yl)-1H-pyrazolo[3,4-d]pyrimidin-3-yl)-2-fluorophenyl)-3-(3-(tert-butyl)isoxazol-5-yl)urea]
IC50 (IL-1β release; [4]): < 150 nM | IC50 [1, 5]: < 150 nM

Compound: CC(C)(C)c1cc(NC(=O)Nc2ccc(-c3nn(C4CCN(C5COC5)CC4)c4ncnc(N)c34)cc2F)on1 [Ia-14, 1-(4-(4-amino-1-(1-(oxetan-3-yl)piperidin-4-yl)-1H-pyrazolo[3,4-d]pyrimidin-3-yl)-2-fluorophenyl)-3-(3-(tert-butyl)isoxazol-5-yl)urea]
IC50 (IL-1β release; [4]): < 150 nM | IC50 [1, 5]: < 150 nM

Compound: CN1CCN(Cc2ccc(NC(=O)Nc3ccc(Oc4ccnc5[nH]cc(Cl)c45)cc3F)cc2C(F)F)CC1 [Ie-22, 1-(4-((3-chloro-1H-pyrrolo[2,3-b]pyridin-4-yl)oxy)-2-fluorophenyl)-3-(3-(difluoromethyl)-4-((4-methylpiperazin-1-yl)methyl)phenyl)urea]
IC50 [1, 6]: 501 to 1500 nM

Compound: CCN1CCN(Cc2ccc(NC(=O)Nc3ccc(Oc4ccnc5[nH]cc(Cl)c45)cc3F)cc2C(F)F)CC1 [Ie-23, 1-(4-((3-chloro-1-pyrrolo[2,3-b]pyridin-4-yl)oxy)-2-fluorophenyl)-3-(3-(difluoromethyl)-4-((4-ethylpiperazin-1-yl)methyl)phenyl)urea]
IC50 [1, 6]: 501 to 1500 nM

Compound: Cc1cn(-c2ccc(NC(=O)Nc3ccc(Oc4ccnc5[nH]cc(Cl)c45)cc3F)cc2C(F)(F)F)cn1 [Ie-24, 1-(4-((3-chloro-1H-pyrrolo[2,3-b]pyridin-4-yl)oxy)-2-fluorophenyl)-3-(4-(4-methyl-1H-imidazol-1-yl)-3-(trifluoromethyl)phenyl)urea]
IC50 [1, 6]: 301 to 500 nM

Compound: Cc1cc(Oc2ccnc3[nH]cc(Cl)c23)ccc1NC(=O)Nc1ccc(CN2CCN(C)CC2)c(C(F)(F)F)c1 [Ie-29]
IC50 [1, 6]: > 1500 nM

Compound: Cc1cc(Oc2ccnc3[nH]c(Cl)c(Cl)c23)ccc1NC(=O)Nc1ccc(CN2CCN(C)CC2)c(C(F)(F)F)c1 [Ie-30, 1-(4-((2,3-dichloro-1H-pyrrolo[2,3-b]pyridin-4-yl)oxy)-2-methylphenyl)-3-(4-((4-methylpiperazin-1-yl)methyl)-3-(trifluoromethyl)phenyl)urea]
IC50 [1, 6]: > 1500 nM

Compound: O=C(Nc1ccc(CN2CC(F)(F)C2)c(C(F)(F)F)c1)Nc1ccc(Oc2ccnc3[nH]cc(Cl)c23)cc1F [Ie-32, 1-(4-((3-chloro-1H-pyrrolo[2,3-b]pyridin-4-yl)oxy)-2-fluorophenyl)-3-(4-((3,3-difluoroazetidin-1-yl)methyl)-3-(trifluoromethyl)phenyl)urea]
IC50 [1, 6]: > 1500 nM

Compound: CN1C[C@H]2CC[C@@H](C1)N2Cc1ccc(NC(=O)Nc2ccc(Oc3ccnc4[nH]cc(Cl)c34)cc2F)cc1C(F)(F)F [Ie-33, 1-(4-((3-chloro-1H-pyrrolo[2,3-b]pyridin-4-yl)oxy)-2-fluorophenyl)-3-(4-(((1R,5S)-3-methyl-3,8-diazabicyclo[3.2.1]octan-8-yl)methyl)-3-(trifluoromethyl)phenyl)urea]
IC50 [1, 6]: > 1500 nM

Compound: COc1cc(CN2CCN(C)CC2)ccc1NC(=O)Nc1ccc(Oc2ccnc3[nH]cc(Cl)c23)cc1F [Ie-40, 1-(4-((3-chloro-1H-pyrrolo[2,3-b]pyridin-4-yl)oxy)-2-fluorophenyl)-3-(2-methoxy-4-((4-methylpiperazin-1-yl)methyl)phenyl)urea]
IC50 [1, 6]: > 1500 nM

Compound: O=C(Nc1ccc(CN2CCN(CCO)CC2)c(C(F)(F)F)c1)Nc1ccc(Oc2ccnc3[nH]cc(Cl)c23)cc1F [Ie-41, 1-(4-((3-chloro-1H-pyrrolo[2,3-b]pyridin-4-yl)oxy)-2-fluorophenyl)-3-(4-((4-(2-hydroxyethyl)piperazin-1-yl)methyl)-3-(trifluoromethyl)phenyl)urea]
IC50 [1, 6]: > 1500 nM

Compound: COCCN1CCN(Cc2ccc(NC(=O)Nc3ccc(Oc4ccnc5[nH]cc(Cl)c45)cc3F)cc2C(F)(F)F)CC1 [Ie-42, 1-(4-((3-chloro-1H-pyrrolo[2,3-b]pyridin-4-yl)oxy)-2-fluorophenyl)-3-(4-((4-(2-methoxyethyl)piperazin-1-yl)methyl)-3-(trifluoromethyl)phenyl)urea]
IC50 [1, 6]: > 1500 nM

Compound: COc1cc(NC(=O)Nc2ccc(Oc3ccnc4[nH]cc(Cl)c34)cc2F)ccc1CN1CCN(C)CC1 [Ie-43, 1-(4-((3-chloro-1H-pyrrolo[2,3-b]pyridin-4-yl)oxy)-2-fluorophenyl)-3-(3-methoxy-4-((4-methylpiperazin-1-yl)methyl)phenyl)urea]
IC50 [1, 6]: > 1500 nM

Other lines, results leading:

IC50 (IL-1β release; [2]): > 1000 nM | IC50 [1, 3]: < 150 nM
Compound: CC(C)n1nc(-c2ccc3c(c2F)CCN3C(=O)Cc2cc(C(F)(F)F)ccc2F)c2c(N)ncnc21 [II-11, 1-(5-(4-amino-1-isopropyl-1H-pyrazolo[3,4-d]pyrimidin-3-yl)-4-fluoroindolin-l-yl)-2-(2-fluoro-5-(trifluoromethyl)phenyl)ethan-1-one]

IC50 (IL-1β release; [2]): > 1000 nM | IC50 [1, 3]: < 150 nM
Compound: Nc1ncnc2c1c(-c1ccc3c(c1F)CCN3C(=O)Cc1cc(C(F)(F)F)ccc1F)nn2C1COC1 [II-12, 1-(5-(4-amino-1-(oxetan-3-yl)-1H-pyrazolo[3,4-d]pyrimidin-3-yl)-4-fluoroindolin-1-yl)-2-(2-fluoro-5-(trifluoromethyl)phenyl)ethan-1-one]

IC50 (IL-1β release; [2]): > 1000 nM | IC50 [1, 3]: < 150 nM
Compound: Nc1ncnc2c1c(-c1ccc3c(c1F)CCN3C(=O)Cc1ccc(F)c(C(F)(F)F)c1)nn2C1CCOCC1 [II-14, 1-(5-(4-amino-1-(tetrahydro-2H-pyran-4-yl)-1H-pyrazolo[3,4-d]pyrimidin-3-yl)-4-fluoroindolin-1-yl)-2-(4-fluoro-3-(trifluromethyl)phenyl)ethan-1-one]

IC50 (IL-1β release; [2]): > 1000 nM | IC50 [1, 3]: < 150 nM
Compound: Nc1ncnc2c1c(-c1ccc3c(c1Cl)CCN3C(=O)Cc1cc(C(F)(F)F)ccc1F)cn2C1CC1 [II-16, 1-(5-(4-amino-7-cyclopropyl-7H-pyrrolo[2,3-d]pyrimidin-5-yl)-4-chloroindolin-1-yl)-2-(2-fluoro-5-(trifluoromethyl)phenyl)ehtan-1-one]

IC50 (IL-1β release; [2]): > 1000 nM | IC50 [1, 3]: < 150 nM
Compound: Nc1ncnc2c1c(-c1ccc3c(c1F)CCN3C(=O)Cc1cc(C(F)(F)F)ccc1F)cn2C1CC1 [II-17, 1-(5-(4-amino-7-cyclopropyl-7H-pyrrolo[2,3-d]pyrimidin-5-yl)-4-fluoroindolin-1-yl)-2-(2-fluoro-5-(trifluoromethyl)phenyl)ethan-1-one]

IC50 (IL-1β release; [4]): < 150 nM | IC50 [1, 5]: < 150 nM
Compound: CC(C)(C)c1cc(NC(=O)Nc2ccc(-c3nn(C4CC4)c4ncnc(N)c34)cc2F)on1 [Ia-13, 1-(4-(4-amino-1-cyclopropyl-1H-pyrazolo[3,4-d]pyrimidin-3-yl)-2-fluorophenyl)-3-(3-(tert-butyl)isoxazol-5-yl)urea]

IC50 (IL-1β release; [4]): < 150 nM | IC50 [1, 5]: < 150 nM
Compound: Nc1ncnc2c1c(-c1ccc(NC(=O)Nc3cc(C4(C(F)(F)F)CC4)no3)c(F)c1)nn2C1CC1 [Ia-21]

IC50 [1, 6]: 301 to 500 nM
Compound: CN1CCN(Cc2ccc(NC(=O)Nc3ccc(Oc4ccnc5[nH]c(Cl)c(Cl)c45)cc3F)cc2C(F)(F)F)CC1 [Ie-25, 1-(4-((2,3-dichloro-1H-pyrrolo[2,3-b]pyridin-4-yl)oxy)-2-fluorophenyl)-3-(4-((4-methylpiperazin-1-yl)methyl)-3-(trifluoromethyl)phenyl)urea]

IC50 [1, 6]: > 1500 nM
Compound: O=C(Nc1ccc(CN2CCC2)c(C(F)(F)F)c1)Nc1ccc(Oc2ccnc3[nH]cc(Cl)c23)cc1F [Ie-31, 1-(4-(azetidin-1-ylmethyl)-3-(trifluoromethyl)phenyl)-3-(4-((3-chloro-1H-pyrrolo[2,3-b]pyridin-4-yl)oxy)-2-fluorophenyl)urea]

IC50 [1, 6]: > 1500 nM
Compound: CN1CC2CCC1CN2Cc1ccc(NC(=O)Nc2ccc(Oc3ccnc4[nH]cc(Cl)c34)cc2F)cc1C(F)(F)F (centres unmarked) [Ie-35, 1-(4-((3-chloro-1H-pyrrolo[2,3-b]pyridin-4-yl)oxy)-2-fluorophenyl)-3-(4-((5-methyl-2,5-diazabicyclo[2.2.2]octan-2-yl)methyl)-3-(trifluoromethyl)phenyl)urea]
